Source: PubChem BioAssay (NCI)
“And” between values parts separate entries of the source, which are not always exact repeats. Equal entries are not always repeated.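 Dose response: 5 concentrations. Exposure: 48 h. Format: 96-well plates. Endpoint: linear interpolation; highest concentration if not reached. GI50 marks 50% less growth. The concentration for full growth arrest is given as TGI.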

How the values were obtained:
Test in all cases: DTP human tumour cell line panel, 48 h
DU-145 prostate = system: DU-145 prostate
EKVX NSCLC = system: EKVX NSCLC
HCT-15 colon = system: HCT-15 colon
HS 578T breast = system: HS 578T breast
MCF7 breast = system: MCF7 breast
NCI-H522 lung = system: NCI-H522 lung
SK-MEL-5 melanoma = system: SK-MEL-5 melanoma
UACC-257 melanoma = system: UACC-257 melanoma
K-562 leukemia = system: K-562 leukemia
HL-60(TB) leukemia = system: HL-60(TB) leukemia

Row | SMILES | GI50 (DU-145 prostate) | TGI (DU-145 prostate) | GI50 (EKVX NSCLC) | TGI (EKVX NSCLC) | GI50 (HCT-15 colon) | TGI (HCT-15 colon) | GI50 (HS 578T breast) | TGI (HS 578T breast) | GI50 (MCF7 breast) | TGI (MCF7 breast) | GI50 (NCI-H522 lung) | TGI (NCI-H522 lung) | GI50 (SK-MEL-5 melanoma) | TGI (SK-MEL-5 melanoma) | GI50 (UACC-257 melanoma) | TGI (UACC-257 melanoma) | TGI (K-562 leukemia) | GI50 (HL-60(TB) leukemia) | TGI (HL-60(TB) leukemia) | GI50 (K-562 leukemia)
1 | CS(=O)CCCCCN=C=S (configuration not stated) | 2810 nM | 10600 nM | 10400 nM | 24800 nM | 2900 nM | 12100 nM | 6380 nM | 36000 nM | 2300 nM | 13200 nM | 1990 nM | 5870 nM | 5300 nM | 17900 nM | 4350 nM | 19700 nM |  |  |  | 
2 | NS(=O)(=O)c1cc2c(cc1Cl)NC(Cc1ccccc1)NS2(=O)=O (configuration not stated) |  | > 100000 nM |  | > 100000 nM |  | > 100000 nM |  | > 100000 nM |  | > 100000 nM |  | > 100000 nM |  | > 100000 nM |  | > 100000 nM | > 100000 nM |  |  | 
3 | COC(=O)c1ccc2c(c1)nc(-c1cc3ccccc3[nH]c1=O)n2-c1cc(C(C)(C)C)[nH]n1 | 2550 nM | > 100000 nM | 10000 nM | > 100000 nM |  |  | 574 nM | > 58400 nM | > 100000 nM | > 100000 nM | 1190 nM | > 100000 nM | 2610 nM | > 100000 nM |  |  | > 100000 nM | 2170 nM | > 100000 nM | 1700 nM
4 | CN1CCCNc2c(c(=O)c2=O)NCCCN(C)CCCNc2c(c(=O)c2=O)NCCCN(C)CCCNc2c(c(=O)c2=O)NCCCN(C)CCCNc2c(c(=O)c2=O)NCCCN(C)CCCNc2c(c(=O)c2=O)NCCCN(C)CCCNc2c(c(=O)c2=O)NCCCN(C)CCCNc2c(c(=O)c2=O)NCCC1 | 1680 nM | 5900 nM | 5540 nM | 15800 nM | 5190 nM | 22500 nM | 9150 nM | 31200 nM | 6520 nM | 19500 nM | 6910 nM | > 50000 nM | 6690 nM | 21900 nM | 3610 nM | 27000 nM |  | 5820 nM | 32400 nM | 
5 | CC1/C=C/C=C/C=C/C=C/C=C/C=C/C=C/C(O[C@@H]2O[C@H](C)[C@H](O)[C@@H](O)[C@@H]2N)CC(O)C(C(=O)O)C(O)CC(=O)CC(O)CC(O)CC(O)CC(=O)CCCC(=O)CC(=O)OC1C(C)CC(C)C(O)CC(=O)c1ccc(N)cc1 (some centres not stated) | 68.7 nM and 335 nM | 148 nM and 1060 nM | 64.4 nM and 221 nM | 126 nM and 484 nM |  |  | 76.5 nM and 329 nM | 211 nM and 1580 nM | 79.7 nM and 422 nM | 173 nM and 1590 nM | 51.2 nM and 161 nM | 98.6 nM and 314 nM | 52.2 nM and 212 nM | 96.1 nM and 496 nM | 54.4 nM and 233 nM | 101 nM and 612 nM | 175 nM | 60.9 nM and 178 nM | 145 nM and 396 nM | 71.6 nM
6 | O=C1C(Br)=CC2(C=C1Br)CCN=c1c2c(O)c2nc3ccccc3c3ccnc1c23 | 1950 nM | 24800 nM | 7230 nM | 15100 nM | 829 nM | 1590 nM | 4000 nM | 17100 nM | 765 nM | 2690 nM | 727 nM | 1490 nM | 1400 nM | 6930 nM |  |  | 7900 nM | 2070 nM | 5590 nM | 1800 nM
7 | C=C1C[C@](OC)([C@H](O)C(=O)N[C@@H](OC)[C@@H]2C[C@@H](O)C(C)(C)[C@@H](C[C@@H](COC)OC)O2)O[C@H](C)[C@@H]1C | 1.45 nM | 4.96 nM | 1.62 nM | 6.67 nM | 2.84 nM | 24.8 nM | 1.36 nM | 4.1 nM |  | 1.45 nM | 1.94 nM | 7.25 nM |  | 0.262 nM | 2.11 nM | 8.85 nM |  | 4.11 nM | > 1000 nM | 
8 | Cc1ccc(NC(=O)NC(=O)c2ccc([N+](=O)[O-])cc2[N+](=O)[O-])cc1Oc1ncc(Cl)cn1 |  | > 100000 nM |  |  |  | 11200 nM |  | 10800 nM |  | 20500 nM |  | 603 nM |  | 819 nM |  | 16900 nM | > 37400 nM |  | 584 nM | 
9 | COc1cc2c(cc1OCCOS(C)(=O)=O)N=C[C@@H]1CCCN1C2=O |  | > 100000 nM |  | > 100000 nM | 16500 nM | 31100 nM |  | 81000 nM |  | > 100000 nM | 10900 nM | 30100 nM | 16900 nM | 42200 nM | 18200 nM | 42800 nM |  |  | 55900 nM | 
10 | CCN(CC)CCCNc1cccc2c(SCc3ccccc3)ccnc12 | 1860 nM | 3490 nM | 2240 nM | 6710 nM | 1720 nM | 3820 nM | 2200 nM | 6310 nM | 1620 nM | 3160 nM | 1510 nM | 3100 nM | 1680 nM | 3080 nM | 2090 nM | 3850 nM |  |  |  | 
11 | CSc1cnn(CCC#N)c(=O)n1 |  | > 100000 nM |  | > 100000 nM |  |  |  | > 100000 nM |  | > 100000 nM |  | > 100000 nM |  | > 100000 nM |  | > 100000 nM | > 100000 nM |  | > 100000 nM | 
12 | CCSCC(N)C(=O)O (configuration not stated) |  | > 100000 nM |  | > 100000 nM |  | > 100000 nM |  | > 100000 nM |  | > 100000 nM |  | > 100000 nM |  | > 100000 nM |  | > 100000 nM |  |  | > 100000 nM | 
